Experimental data: patent US7638514B2, “Pesticidally active phenol derivatives” (Syngenta Crop Protection, Inc., priority 2003, dated 2009)

Key:
Assay type in all cases: in vivo
[1] = test system: Heliothis virescens caterpillars; assay: Action against Heliothis virescens caterpillars; conditions: 144 h, 400 ppm spray mixture on young soybean plants, 10 caterpillars in the first stage, evaluation 6 days later, read-out: percentage reduction in population and percentage reduction in feeding damage (% activity)
Procedure: (§1) Young soybean plants are sprayed with an aqueous emulsion spray mixture comprising 400 ppm of test compound. After the spray-coating has dried, the soybean plants are populated with 10 caterpillars of Heliothis virescens in the first stage and placed in a plastics container. Evaluation is made 6 days later. The percentage reduction in population and the percentage reduction in feeding damage (% activity) are determined by comparing the number of dead caterpillars and the feeding damage on the treated plants with that on the untreated plants.

[2] = test system: Plutella xylostella caterpillars; assay: Action against Plutella xylostella caterpillars; conditions: 72 h, 400 ppm spray mixture on young cabbage plants, 10 caterpillars in the third stage, evaluation 3 days later, read-out: percentage reduction in population and percentage reduction in feeding damage (% activity)
Procedure: as §1, with “cabbage” for “soybean”, “Plutella xylostella” for “Heliothis virescens”, “third” for “first”, “3” for “6”

[3] = test system: Spodoptera littoralis caterpillars; assay: Action against Spodoptera littoralis; conditions: 72 h, 400 ppm spray mixture on young soybean plants, 10 caterpillars in the first stage, 3 days later, read-out: percentage reduction in population and percentage reduction in feeding damage (% activity)
Procedure: Young soybean plants are sprayed with an aqueous emulsion spray mixture comprising 400 ppm of test compound and, after the spray-coating has dried, the plants are populated with 10 caterpillars of Spodoptera littoralis in the first stage and then placed in a plastics container, 3 days later, the percentage reduction in population and the percentage reduction in feeding damage (% activity) are determined by comparing the number of dead caterpillars and the feeding damage on the treated plants with that on untreated plants.

Measured: inhibition at 400 ppm

O=C(NCCCOc1c(Cl)cc(OCC=C(Cl)Cl)cc1Cl)C(=C(Cl)Cl)c1ccc(C(F)(F)F)cc1 [Compound 1.2, 3,3-dichloro-N-{3-[2,6-dichloro-4-(3,3-dichloro-allyloxy)-phenoxy]-propyl}-2-(4-trifluoromethyl-phenyl)-acrylamide]
> 80%: all assays above

C=C(COc1ccc(C(F)(F)F)cc1)COc1c(Cl)cc(OCC=C(Cl)Cl)cc1Cl [Compound 1.9, 1,3-dichloro-5-(3,3-dichloro-allyloxy)-2-[2-(4-trifluoromethyl-phenoxymethyl)-allyloxy]-benzene]
> 80%: all assays above
